Source: article PMC7708037, “Targeting OGG1 arrests cancer cell proliferation by inducing replication stress” (Nucleic Acids Research, 2020)

Key:
OGG1 enzyme = OGG1 enzyme (Homo sapiens, UniProt O15527); test: Cellular thermal shift assay in excised xenograft tumors; type: in vivo; set-up: endogenous in cells; host or cells: A3 T-cell acute lymphoblastic leukemia cells (luciferase-transfected) grown as subcutaneous xenograft tumours in NOD-SCID mice; settings: A3 xenograft tumors excised following termination
Experimental: Animal experiments were conducted as per the European directive, ethical guideline and regulations of the regional animal ethical committee Stockholm 2010/63 (N8914). Upon arrival to animal facility, animals were acclimatized in the animal house for a week with ad lib food and water, with a 12 h light cycle and the temperature and humidity set according to laboratory animal guidelines and regulations. For the xenograft experiment involving inducible shRNA, 1 × 10^7 non-targeting luciferase transfected A3 cells in 50% matrigel in PBS were injected into flank region of BALB/c nude mice. Later, mice from non-targeting and shRNA groups were randomly divided into two groups containing eight mice per group. […] Tumor volume was measured using calipers (length × 0.52 × width × width) and bioluminescence images were taken using an IVIS spectrum in vivo imaging system (Perkin-Elmer) after intraperitoneal injection of D-luciferin (150 mg/kg in PBS). […] Following lysis by three freeze-thaw cycles, samples were centrifuged at 20 000 × g for 30 min, and OGG1 in the supernatant was detected by immunoblotting. […]
Figure 7. […] Tumors were excised following termination, and TH5487 target engagement was analyzed by cellular thermal shift assay, using an antibody specific for the human OGG1 protein. […]

[1] = tested on: replication fork rate in A3 cells; test: DNA fibre assay; type: cell-based, human; settings: 10 μM, 48 and 72 h
Experimental: A3 Cells were exposed to either 0.1% DMSO or 10 μM TH5487 for the indicated times, pulse-labeled with 25 μM 5-chloro-2′-deoxyuridine (CldU) for 30 min, washed with medium and pulse-labeled with 250 μM 5-iodo-2′-deoxyuridine (IdU) for 30 min. Alternatively, control or OGG1 shRNA expression was induced with 1 μg/ml doxycyline for 48 h or 96 h before pulse labelling. CldU was detected by incubating acid-treated fiber spreads in Ibidi μ-Slide VI 0.4 (Ibidi, 80606) with rat anti-BrdU monoclonal antibody (AbD Serotec; cat# MCA2060), whereas IdU was detected using mouse anti-BrdU monoclonal antibody (BD Biosciences; cat# 347580) for 1 h at 37°C. […] The lengths of red (AF 555) or green (AF 488) labeled patches were measured using the ImageJ software (National Institutes of Health; http://rsbweb.nih.gov/ij/) and arbitrary length values were converted into micrometers.
Figure 5. […] A3 cells were treated with 20 mM KBrO3 for 1 h or with 10 μM TH5487 for the indicated times, and the amount of genomic 8-oxodG was quantified with LC-MS/MS. […] A3 cells were treated with 10 μM TH5487 for 72 h and strand-breaks and OGG1 substrate lesions were analyzed with the OGG1-modified Comet assay. […] Cells were treated as in B, and the tail moment of the cells were analyzed using blinded automatic analysis (n = 200 per condition from two independent experiments). […] At least 300 forks were scored per condition. […]

Chain of OGG1 enzyme (O15527 whole entry): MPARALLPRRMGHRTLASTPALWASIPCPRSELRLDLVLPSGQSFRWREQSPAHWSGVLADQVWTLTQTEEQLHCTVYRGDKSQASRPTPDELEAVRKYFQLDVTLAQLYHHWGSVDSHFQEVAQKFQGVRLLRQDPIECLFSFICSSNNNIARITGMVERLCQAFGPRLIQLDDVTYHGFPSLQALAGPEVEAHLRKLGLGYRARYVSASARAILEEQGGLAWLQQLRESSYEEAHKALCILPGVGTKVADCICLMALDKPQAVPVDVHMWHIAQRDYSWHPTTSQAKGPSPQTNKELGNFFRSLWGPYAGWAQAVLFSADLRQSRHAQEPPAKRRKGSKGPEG

Structure (SMILES): O=C(Nc1ccc(I)cc1)N1CCC(n2c(=O)[nH]c3c(Br)cccc32)CC1 [TH5487]
- OGG1 target engagement in xenograft tumor (CETSA) (OGG1 enzyme): unable to demonstrate OGG1 target engagement
- Replication fork rate [1]: marked reduction
